Data on five molecules can be found in patent US8198294B2, “Treatment of dyskinesia” (Motac Neuroscience Limited, priority 2001, dated 2012).

The test system of the experiment is MPTP-lesioned marmoset. The experiment in a line: L-DOPA-induced dyskinesia in MPTP-treated marmoset model of Parkinson's disease. As to conditions: for Median total dyskinesia scores compared to animals treated with L-DOPA and vehicle / Animals in which dyskinesia was completely abolished: antagonist 10 mg/kg i.p. with L-DOPA 8 mg/kg p.o.; for Median total dyskinesia scores compared to animals treated with L-DOPA and vehicle: cumulative scores; for Animals in which dyskinesia was completely abolished: n=6. The class given is in vivo, common marmosets (Callithrix jacchus). Here is the method: The effect of the selective mu opioid receptor antagonist Cyprodime on dyskinesia was assessed in a 1-methyl-4-phenyl-1,2,3,6-tetrahydropyridine (MPTP)-treated marmoset model of Parkinson's disease.
Six adult common marmosets (Callithrix jacchus) were obtained from a closed colony bred at Manchester University, BSU. This study was conducted in the U.K. in accordance with the requirements of The Animals (Scientific Procedures) Act, 1986. The animals were kept in controlled housing conditions, with constant temperature (25° C.), relative humidity (50%) and 12 h light/dark cycles (08.00-20.00 light on). The animals had free access to food (Masuri primate diet-E, Scientific Dietary Services, UK), fresh fruit supplements and water. Marmosets were rendered parkinsonian by treatment with 1-methyl-4-phenyl-1,2,3,6-tetrahydropyridine (MPTP) hydrochloride (Sigma, 2 mg/kg s.c. for 5 consecutive days). […] The animals were allowed to recover for a period of 14 weeks until behavioural assessment was commenced.
Dyskinesia was established in these animals by twice daily treatment with L-DOPA (10 mg/kg p.o. as Madopar Dispersible®) for 3 weeks.
Opioid antagonists, or vehicle, were administered with L-DOPA to assess the effects of adjunctive treatment on L-DOPA-induced dyskinesia and the anti-parkinsonian efficacy of L-DOPA. All animals received all treatments. Treatments in any one animal were separated by at least three days. Naltrexone (non-selective antagonist) was administered at a dose of 10 mg/kg (i.p), cyprodime (mu selective antagonist) was administered at a dose of 10 mg/kg (i.p.), naltrindole (delta selective antagonist) was administered at a dose of 10 mg/kg (i.p.), nor-binaltorphimine (nor-BNI, kappa selective antagonist) was administered at a dose of 20 mg/kg (i.p.). Drugs or vehicle were administered with L-DOPA treatment (8 mg/kg p.o.). Behaviour was assessed for 3 hours post drug administration.
A battery of behavioural assessments was performed to assess the intensity, range and speed of movements. In addition, postural abnormalities and dyskinesia were assessed. • 1) Parkinsonian disability—non-parametric measures based on the following scales • i) Motor activity (repertoire) score: 0=no movement at all, 1=movement of head or trunk, 2=movement of limbs but no locomotion, on the floor of the cage, 3=on wall of cage/perch, movement of head or trunk, 4=on wall of cage/movement of limbs but no locomotion, 5=walking around/eating on floor of cage, 6=hopping on floor of cage, 7=climbing onto wall of cage or perch, 8=climbing up and down the walls of the cage or along perch, 9=running, jumping, climbing between cage walls/perch/roof, uses limbs through a wide range of motion and activity. • ii) Bradykinesia score: 0=normal speed of movement, 1=moderate slowing of movement, difficulty initiating and maintaining movement 2=akinetic, unable to move (maximum score in 30 minutes=12). • iii) Posture score: 0=normal, upright, holds head up, 1=impaired, crouched, face down. (maximum score in 30 minutes=6). • 2) Dyskinesia • 0=Absent • 1=Mild, fleeting • 2=Moderate, not interfering with normal activity • 3=Marked, at times interfering with normal activity • 4=Severe, continuous, replacing normal activity
Parameters 1 and 2 were assessed every 30 minutes throughout a six hour period by post-hoc analysis of videotape recordings. Assessment was made by an observer blinded to the treatment administered.
Non-parametric measures of mobility, bradykinesia, posture and dyskinesia were cumulated and compared between treatments with a Friedman's test with post hoc Dunn's test where appropriate.

The mark [1] stands for this setting: L-DOPA 8 mg/kg p.o., MPTP-treated marmosets.

The structures appear in SMILES notation. Bounds are passed on as bounds.

For the molecule `N[C@@H](Cc1ccc(O)c(O)c1)C(=O)O` [L-DOPA], under setting [1], the “Parkinsonian symptoms after L-DOPA treatment” value is given as “reversed” and the “Time to commencement of dyskinesia after L-DOPA administration” value is not above 5 min.

On to `Oc1ccc2c3c1O[C@H]1c4[nH]c5ccccc5c4C[C@@]4(O)[C@@H](C2)N(CC2CC2)CC[C@]314` [naltrindole], for which the “Animals in which dyskinesia was completely abolished” value was found to be 50%. Further, the “Median total dyskinesia scores compared to animals treated with L-DOPA and vehicle” value (n=6, FIG. 1) is on record as “reduced”.

On to `O=C1CC[C@@]2(O)[C@H]3Cc4ccc(O)c5c4[C@@]2(CCN3CC2CC2)[C@H]1O5` [naltrexone], for which the “Animals in which dyskinesia was completely abolished” value came out at 33%. Also, for the setting “n=6, FIG. 1”, the “Median total dyskinesia scores compared to animals treated with L-DOPA and vehicle” value is given as “reduced”.

Take `COc1cccc2c1[C@]13CCN(CC4CC4)[C@H](C2)[C@]1(OC)CCC(=O)C3` [cyprodime]: the “Animals in which dyskinesia was completely abolished” value came out at 100%. Further, the “Dyskinesia exhibited by each treated animal” value (10 mg/kg i.p. with L-DOPA 8 mg/kg p.o., individual animals) was “minimal or no dyskinesia”. In addition, the “Median total dyskinesia scores compared to animals treated with L-DOPA and vehicle” value (n=6, FIG. 1) was “markedly reduced”.

On to `Oc1ccc2c3c1O[C@H]1c4[nH]c5c(c4C[C@@]4(O)[C@@H](C2)N(CC2CC2)CC[C@]314)C[C@@]1(O)[C@H]2Cc3ccc(O)c4c3[C@@]1(CCN2CC1CC1)[C@H]5O4` [nor-BNI, nor-binaltorphimine], for which the “Median total dyskinesia scores (effect on L-DOPA-induced dyskinesia)” value (antagonist 20 mg/kg i.p. with L-DOPA 8 mg/kg p.o., n=6, FIG. 1) is “no effect”.
